# Measurements as given in patent US9370186B2 (priority 2012, dated 2016).
# Where two headings read alike, the source gives them in different places.
# Experiments:
# Phytophthora infestans [1] = test: whole plant or invertebrate; type: in vivo; conditions: for Practical dose for 70% efficacy: EC70, compound alone, preventive 24 h, potato leaf discs; for EC50: Phytophthora infestans, in Solanum tuberosum, foliar, 24 h, read-out: Practical dose for 50% efficacy
# Phytophthora infestans [2] = type: in vivo; conditions: tomatoes, 3 days after inoculation
SMILES,Practical dose for 70% efficacy (Phytophthora infestans [1]) [mg a.i./L],EC50 (Phytophthora infestans [1]) [µg/mL],Efficacy (%) fenamidone alone (Phytophthora infestans [1]; fenamidone 0.5 mg a.i./L) [%],Efficacy (%) fenamidone alone (Phytophthora infestans [1]; fenamidone 1 mg a.i./L) [%],Efficacy (%) fenamidone alone (Phytophthora infestans [1]; fenamidone 2 mg a.i./L) [%],Efficacy (%) fenamidone alone (Phytophthora infestans [1]; fenamidone 4 mg a.i./L) [%],Efficacy (%) fenamidone alone (Phytophthora infestans [1]; fenamidone 8 mg a.i./L) [%],Efficacy (%) fenamidone alone (Phytophthora infestans [1]; fenamidone 16 mg a.i./L) [%],Efficacy (%) fenamidone alone (Phytophthora infestans [1]; fenamidone 50 mg a.i./L) [%],Efficacy in % found (Phytophthora infestans [2]; 0.5 ppm a.i.) [%],Efficacy (%) ethaboxam alone (Phytophthora infestans [1]; ethaboxam 0.75 mg a.i./L) [%],Efficacy (%) ethaboxam alone (Phytophthora infestans [1]; ethaboxam 1.5 mg a.i./L) [%],Efficacy (%) ethaboxam alone (Phytophthora infestans [1]; ethaboxam 3 mg a.i./L) [%],Efficacy (%) ethaboxam alone (Phytophthora infestans [1]; ethaboxam 6 mg a.i./L) [%],Efficacy (%) ethaboxam alone (Phytophthora infestans [1]; ethaboxam 12 mg a.i./L) [%],Efficacy (%) ethaboxam alone (Phytophthora infestans [1]; ethaboxam 24 mg a.i./L) [%],Efficacy (%) ethaboxam alone (Phytophthora infestans [1]; ethaboxam 75 mg a.i./L) [%],Efficacy in % found (Phytophthora infestans [2]; 5 ppm a.i.) [%]
"CSC1=N[C@@](C)(c2ccccc2)C(=O)N1Nc1ccccc1 [fenamidone, (S)-3,5-dihydro-5-methyl-2-(methylthio)-5-phenyl-3-(phenylamino)-4H-imidazol-4-one]",9.764,6.26,0,0,5,29,83,82,91,28,–,–,–,–,–,–,–,–
"CCNc1nc(CC)c(C(=O)NC(C#N)c2cccs2)s1 (centres unmarked) [ethaboxam, N-(cyano-2-thienylmethyl)-4-ethyl-2-(ethylamino)-5-thiazolcarboxamide]",27.820,15.3,–,–,–,–,–,–,–,–,0,0,5,13,67,73,75,40
